# According to PMC9595134, “Novel pituitary actions of GnRH in teleost: The link between reproduction and feeding regulation” (Frontiers in Endocrinology, 2022):
# Tests used:
# [1] = system: grass carp pituitary cells; experiment: Signal transduction: pathway inhibitors on GnRH-regulated reproductive gene mRNA; assay type: cell-based, grass carp (Ctenopharyngodon idellus); conditions: U73122 10 μM, GF109203X 20 μM, 2-APB 100 μM, MDL12330A 20 μM, H89 20 μM, nifedipine 10 μM, calmidazolium 1 μM, KN62 5 μM; for blockade of GnRH2-induced GtHα, LHβ, FSHβ, INHBa, and SgII mRNA expression: cotreated with GnRH2, 24 h; for blockade of GnRH3-induced GtHα, LHβ, FSHβ, INHBa, and SgII mRNA expression: cotreated with GnRH3, 24 h
# Protocol: (§1) The preparation of grass carp pituitary cells was performed as mentioned above. After drug treatment, the total RNA of these cells was isolated by TRIzol reagent and reverse transcribed into cDNA with Hifair™ III 1st Strand cDNA Synthesis Kit. The transcript levels of several anorectic peptides (POMCb, CART2, UTS1, NMBa, NMBb, and Lepr) and reproductive genes (GtHα, LHβ, FSHβ, INHBa, SgII, DRD2) were detected by using an ABI 7500 quantitative real-time PCR (qRT-PCR) system (Biosystems, USA) (information of primers for target genes is listed in Supplementary Table S3 ). In this process, a serial gradient dilution of plasmid DNA of these genes was used as a standard for data calibration. The conditions of qRT-PCR were set to 10 min, 95°C, for pre-degeneration; 15 s, 95°C, for degeneration; 30 s, 55°C–60°C, for annealing; 30 s, 72°C, for extending; and 20 s, 82°C, for signal detection with 40 cycles. Finally, the melt curve obtained through each test was used to verify and check the reliability and specificity of the corresponding qRT-PCR.
# (§2) In this experiment, GnRH2 (A) or GnRH3 (B) combined with/without the PLC inhibitor U73122 (10 μM), PKC inhibitor GF109203X (20 μM), or IP3 receptor blocker 2-APB (100 μM) was used to incubate the grass carp pituitary cells for 24 (h) After drug treatment, the total RNA was extracted from the cells for real-time PCR of the respective genes. Data presented are expressed as mean ± SEM, and the different letters represent a significant difference at p < 0.05 between groups (ANOVA followed by a Dunnett test).
# as §2, with “AC” for “PLC”, “MDL12330A (20 μM) or PKA” for “U73122 (10 μM), PKC”, “H89” for “GF109203X”, “(20” for “(20 μM), or IP3 receptor blocker 2-APB (100”
# Data presented are expressed as mean ± SEM, and the different letters represent a significant difference at p < 0.05 between groups (ANOVA followed by a Dunnett test).
# [2] = system: grass carp pituitary cells; experiment: Signal transduction: pathway inhibitors on GnRH-induced anorectic gene mRNA; assay type: cell-based, grass carp (Ctenopharyngodon idellus); conditions: U73122 10 μM, GF109203X 20 μM, 2-APB 100 μM, MDL12330A 20 μM, H89 20 μM, nifedipine 10 μM, calmidazolium 1 μM, KN62 5 μM; for blockade of GnRH2-induced POMCb, CART2, UTS1, NMBa, NMBb, and LEPR mRNA expression: cotreated with GnRH2, 24 h; for blockade of GnRH3-induced POMCb, CART2, UTS1, NMBa, NMBb, and LEPR mRNA expression: cotreated with GnRH3, 24 h
# Protocol: as §1
# To explore the signal transduction for GnRH-induced target gene mRNA expression, the method mentioned above was performed.
# as §2, with “Figure 10 Signal transduction for GnRH2- and GnRH3-induced POMCb, CART2, UTS1, NMBa, NMBb, and LEPR mRNA expression in grass carp pituitary cells. In” for “In”
# as §2, with “Figure 11 Signal transduction for GnRH2- and GnRH3-induced POMCb, CART2, UTS1, NMBa, NMBb, and LEPR mRNA expression in grass carp pituitary cells. In” for “In”, “AC” for “PLC”, “MDL12330A (20 μM) or PKA” for “U73122 (10 μM), PKC”, “H89” for “GF109203X”, “(20” for “(20 μM), or IP3 receptor blocker 2-APB (100”
# Figure 12 Signal transduction for GnRH2- and GnRH3-induced POMCb, CART2, UTS1, NMBa, NMBb, and LEPR mRNA expression in grass carp pituitary cells. […] Data presented are expressed as mean ± SEM, and the differences between groups were significant at p < 0.05 by labelling diverse letters (ANOVA followed by a Dunnett test).
# DRD2 = conditions: teleost; ref [37]; cited from earlier work
# grass carp pituitary = conditions: ref [15]; cited from earlier work
# From the text: As we know, energy metabolism was associated with reproductive behavior in vertebrates ([11]), and adequate energy reserve was essential for breeding ([12]).
compound,measurement,setting,value
NCCOB(c1ccccc1)c1ccccc1 [2-APB],"blockade of GnRH2-induced GtHα, LHβ, FSHβ, INHBa, and SgII mRNA expression",[1],could block
same,"blockade of GnRH3-induced GtHα, LHβ, FSHβ, INHBa, and SgII mRNA expression",[1],could block
same,"blockade of GnRH2-induced POMCb, CART2, UTS1, NMBa, NMBb, and LEPR mRNA expression",[2],could block
same,"blockade of GnRH3-induced POMCb, CART2, UTS1, NMBa, NMBb, and LEPR mRNA expression",[2],could block
CN(C)CCCn1cc(C2=C(c3c[nH]c4ccccc34)C(=O)NC2=O)c2ccccc21 [GF109203X],"blockade of GnRH2-induced GtHα, LHβ, FSHβ, INHBa, and SgII mRNA expression",[1],could block
same,"blockade of GnRH3-induced GtHα, LHβ, FSHβ, INHBa, and SgII mRNA expression",[1],could block
same,"blockade of GnRH2-induced POMCb, CART2, UTS1, NMBa, NMBb, and LEPR mRNA expression",[2],could block
same,"blockade of GnRH3-induced POMCb, CART2, UTS1, NMBa, NMBb, and LEPR mRNA expression",[2],could block
O=S(=O)(NCCNC/C=C/c1ccc(Br)cc1)c1cccc2cnccc12 [H89],"blockade of GnRH2-induced GtHα, LHβ, FSHβ, INHBa, and SgII mRNA expression",[1],could also be blocked
same,"blockade of GnRH3-induced GtHα, LHβ, FSHβ, INHBa, and SgII mRNA expression",[1],could also be blocked
same,"blockade of GnRH2-induced POMCb, CART2, UTS1, NMBa, NMBb, and LEPR mRNA expression",[2],could block
same,"blockade of GnRH3-induced POMCb, CART2, UTS1, NMBa, NMBb, and LEPR mRNA expression",[2],could block
CN([C@@H](Cc1ccc(OS(=O)(=O)c2cccc3cnccc23)cc1)C(=O)N1CCN(c2ccccc2)CC1)S(=O)(=O)c1cccc2cnccc12 [KN62],"blockade of GnRH2-induced GtHα, LHβ, FSHβ, INHBa, and SgII mRNA expression",[1],could also block
same,"blockade of GnRH3-induced GtHα, LHβ, FSHβ, INHBa, and SgII mRNA expression",[1],could also block
same,"blockade of GnRH2-induced POMCb, CART2, UTS1, NMBa, NMBb, and LEPR mRNA expression",[2],could block
same,"blockade of GnRH3-induced POMCb, CART2, UTS1, NMBa, NMBb, and LEPR mRNA expression",[2],could block
Cl.c1ccc(C2CCCC2NC2=NCCCCCCCCCCC2)cc1 (centres unmarked) [MDL12330A],"blockade of GnRH2-induced GtHα, LHβ, FSHβ, INHBa, and SgII mRNA expression",[1],could also be blocked
same,"blockade of GnRH3-induced GtHα, LHβ, FSHβ, INHBa, and SgII mRNA expression",[1],could also be blocked
same,"blockade of GnRH2-induced POMCb, CART2, UTS1, NMBa, NMBb, and LEPR mRNA expression",[2],could block
same,"blockade of GnRH3-induced POMCb, CART2, UTS1, NMBa, NMBb, and LEPR mRNA expression",[2],could block
COc1ccc2c(c1)CC[C@@H]1[C@@H]2CC[C@]2(C)[C@@H](NCCCCCCN3C(=O)C=CC3=O)CC[C@@H]12 [U73122],"blockade of GnRH2-induced GtHα, LHβ, FSHβ, INHBa, and SgII mRNA expression",[1],could block
same,"blockade of GnRH3-induced GtHα, LHβ, FSHβ, INHBa, and SgII mRNA expression",[1],could block
same,"blockade of GnRH2-induced POMCb, CART2, UTS1, NMBa, NMBb, and LEPR mRNA expression",[2],could block
same,"blockade of GnRH3-induced POMCb, CART2, UTS1, NMBa, NMBb, and LEPR mRNA expression",[2],could block
Clc1ccc(C(c2ccc(Cl)cc2)n2cc[n+](CC(OCc3ccc(Cl)cc3Cl)c3ccc(Cl)cc3Cl)c2)cc1 (centres unmarked) [calmidazolium],"blockade of GnRH2-induced GtHα, LHβ, FSHβ, INHBa, and SgII mRNA expression",[1],could also block
same,"blockade of GnRH3-induced GtHα, LHβ, FSHβ, INHBa, and SgII mRNA expression",[1],could also block
same,"blockade of GnRH2-induced POMCb, CART2, UTS1, NMBa, NMBb, and LEPR mRNA expression",[2],could block
same,"blockade of GnRH3-induced POMCb, CART2, UTS1, NMBa, NMBb, and LEPR mRNA expression",[2],could block
NCCc1ccc(O)c(O)c1 [dopamine],effect on LH synthesis via activation of DRD2,DRD2,inhibited
COC(=O)C1=C(C)NC(C)=C(C(=O)OC)C1c1ccccc1[N+](=O)[O-] [nifedipine],"blockade of GnRH2-induced POMCb, CART2, UTS1, NMBa, NMBb, and LEPR mRNA expression",[2],could block
same,"blockade of GnRH3-induced POMCb, CART2, UTS1, NMBa, NMBb, and LEPR mRNA expression",[2],could block
prolactin-releasing peptide [PRRP],effect on LH secretion and synthesis,grass carp pituitary,significantly induce
